Measurements as given in article doi:10.1101/2025.05.30.657074, “A covalent recognition strategy enables conspecific mate identification” (bioRxiv, 2025).
pEC50: −log10 of the molar value.

Key:
[1] = molecular target: OR1_M344A (Bombyx mori, UniProt Q5WA61, M344A); assay: GCaMP6 calcium flux assay, BmOR1/Orco mutant M344A; format: cell-based
Excerpt: (§1) The first insect pheromone system characterized at the molecular level is that of Bombyx mori, a moth long known to navigate towards its mate guided solely by pheromone cues with impressive navigation accuracy. Two PR/Orco complexes, BmOR1/BmOrco and BmOR3/BmOrco, have been linked to the behavioral responses to pheromones in B. mori (Figure 1A). The conspecific pheromone, bombykol, is detected through BmOR1/Orco and leads to sexual attraction. The heterospecific pheromone, bombykal, is sensed through BmOR3/Orco, and leads to suppression of mating behavior. We first characterized the extent to which both PR/Orco complexes are selective towards their cognate ligands. We used a previously established calcium flux functional assay where we co-transfected HEK293 cells with either BmOR1 or BmOR3, along with the coreceptor, BmOrco (here on referred to as Orco), and the fluorescent calcium reporter, GCaMP6 (Figure 1C). In this assay, ligand-activation of the heteromeric ion channel complexes by addition of either bombykol or bombykal leads to calcium influx, read out as GCaMP6 fluorescence changes that can be monitored in real-time and dose-dependent manner using a fluorescence plate reader. […]
(§2) HEK293T cells were maintained at 37°C with 5% carbon dioxide and grown in high glucose DMEM enhanced with 10% FBS and 1% GlutaMAX (Gibco). […] Cells were kept at 37°C for 18-20 hours before being used for fluorescence plate reading. […]
(§3) On the day of the GCaMP6 assay, Bravo (Agilent), a versatile liquid handler was used to prepare both the odorant plate and the assay plate (transfected cell plate) prior to the fluorescence readout using the FDSS/µcell kinetic plate Imager (Hamamatsu, C13299).
(§4) For the odorant plate, the DMSO dissolved stock solutions were diluted in 19.8 µL of Reading buffer (20 mM HEPES/NaOH (pH 7.4), 1× HBSS (Gibco), 3 mM Na2CO3, 1 mM MgSO4, and 5 mM CaCl2) to give a final concentration ranging from 3.16 nM to 1 mM with 1% DMSO. […]
(§5) The kinetics of the fluorescence change upon odorant addition were measured using the FDSS/µcell kinetic plate Imager (Hamamatsu, C13299). […]

[2] = molecular target: OR3_T91N (Bombyx mori, UniProt Q5FBE0, T91N); assay: GCaMP6 calcium flux assay, BmOR3/Orco mutant T91N; format: cell-based
OR3_T91N, sequence (Q5FBE0 entry or part of it T91N): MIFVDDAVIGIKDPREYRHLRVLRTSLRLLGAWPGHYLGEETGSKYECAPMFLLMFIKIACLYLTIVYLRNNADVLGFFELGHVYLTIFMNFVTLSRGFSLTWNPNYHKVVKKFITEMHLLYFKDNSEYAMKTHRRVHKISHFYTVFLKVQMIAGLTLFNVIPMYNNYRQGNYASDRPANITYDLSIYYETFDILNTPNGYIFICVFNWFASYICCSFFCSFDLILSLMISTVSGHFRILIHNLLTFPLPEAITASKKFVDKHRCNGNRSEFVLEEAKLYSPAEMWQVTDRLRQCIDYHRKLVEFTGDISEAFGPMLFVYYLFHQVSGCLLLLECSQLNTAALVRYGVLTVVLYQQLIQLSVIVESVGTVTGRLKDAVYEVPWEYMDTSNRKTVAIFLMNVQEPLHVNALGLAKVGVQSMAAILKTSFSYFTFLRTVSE
OR3_T91N, sequence (Q7YT34 entry or part of it, stated change not applied, further chain): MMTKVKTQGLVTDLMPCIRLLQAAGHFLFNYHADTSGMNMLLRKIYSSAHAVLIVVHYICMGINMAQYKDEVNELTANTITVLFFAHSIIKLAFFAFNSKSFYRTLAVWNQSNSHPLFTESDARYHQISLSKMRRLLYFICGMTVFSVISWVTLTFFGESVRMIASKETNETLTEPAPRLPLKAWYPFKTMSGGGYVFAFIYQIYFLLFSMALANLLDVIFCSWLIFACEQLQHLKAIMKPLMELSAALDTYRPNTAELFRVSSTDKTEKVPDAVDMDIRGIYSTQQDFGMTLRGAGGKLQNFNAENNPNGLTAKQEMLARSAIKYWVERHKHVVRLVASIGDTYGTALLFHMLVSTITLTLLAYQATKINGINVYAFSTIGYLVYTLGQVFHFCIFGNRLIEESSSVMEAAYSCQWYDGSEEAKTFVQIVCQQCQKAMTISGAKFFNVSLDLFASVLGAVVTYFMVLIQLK
Excerpt: as §1, §2, §3, §4, §5

[3] = molecular target: OR1_N93T (Bombyx mori, UniProt Q5WA61, N93T); assay: GCaMP6 calcium flux assay, BmOR1/Orco mutant N93T; format: cell-based
OR1_N93T, sequence (Q5WA61 entry or part of it N93T): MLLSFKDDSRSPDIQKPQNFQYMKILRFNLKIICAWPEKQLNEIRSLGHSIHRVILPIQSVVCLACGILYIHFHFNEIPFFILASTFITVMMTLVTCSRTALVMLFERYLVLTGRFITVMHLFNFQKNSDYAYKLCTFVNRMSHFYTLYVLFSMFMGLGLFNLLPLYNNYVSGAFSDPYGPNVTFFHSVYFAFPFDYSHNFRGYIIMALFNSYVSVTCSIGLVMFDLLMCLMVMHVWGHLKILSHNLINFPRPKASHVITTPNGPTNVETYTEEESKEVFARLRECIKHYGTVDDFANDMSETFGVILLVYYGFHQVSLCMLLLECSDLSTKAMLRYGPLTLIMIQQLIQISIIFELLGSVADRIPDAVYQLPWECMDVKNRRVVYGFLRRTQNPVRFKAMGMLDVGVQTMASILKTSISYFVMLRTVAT
OR1_N93T, sequence (Q7YT34 entry or part of it, stated change not applied, further chain): as the sequence (Q7YT34 entry or part of it, stated change not applied, further chain) above
Excerpt: as §1, §2, §3, §4, §5

[4] = molecular target: OR3_K58S (Bombyx mori, UniProt Q5FBE0, K58S); assay: GCaMP6 calcium flux assay, BmOR3/Orco mutant K58S; format: cell-based
OR3_K58S, sequence (Q5FBE0 entry or part of it K58S): as the sequence (Q5FBE0 entry or part of it T91N) above, with K58S, N91T counted along it
OR3_K58S, sequence (Q7YT34 entry or part of it, stated change not applied, further chain): as the sequence (Q7YT34 entry or part of it, stated change not applied, further chain) above
Excerpt: (§6) The first insect pheromone system characterized at the molecular level is that of Bombyx mori, a moth long known to navigate towards its mate guided solely by pheromone cues with impressive navigation accuracy. Two PR/Orco complexes, BmOR1/BmOrco and BmOR3/BmOrco, have been linked to the behavioral responses to pheromones in B. mori (Figure 1A). The conspecific pheromone, bombykol, is detected through BmOR1/Orco and leads to sexual attraction. The heterospecific pheromone, bombykal, is sensed through BmOR3/Orco, and leads to suppression of mating behavior. We first characterized the extent to which both PR/Orco complexes are selective towards their cognate ligands. We used a previously established calcium flux functional assay where we co-transfected HEK293 cells with either BmOR1 or BmOR3, along with the coreceptor, BmOrco (here on referred to as Orco), and the fluorescent calcium reporter, GCaMP6 (Figure 1C). In this assay, ligand-activation of the heteromeric ion channel complexes by addition of either bombykol or bombykal leads to calcium influx, read out as GCaMP6 fluorescence changes that can be monitored in real-time and dose-dependent manner using a fluorescence plate reader. […] But we also found both PR/Orco complexes to be somewhat promiscuous: both complexes are activated by their non-cognate pheromones (bombykal for BmOR1/Orco and bombykol for BmOR3/Orco) with a response that is ~10 fold smaller than their cognate pheromones. […] Instead, two complexes with reciprocal specificities enable an unequivocal response to bombykal and bombykol across all concentrations, ensuring the behavioral accuracy needed for mate selection.
(§7) The assay was performed similarly to method descriptions in previous studies.
(§8) All DNA constructs used in this assay were cloned into a modified pME18 vector that contains a SV40 promotor.
(§9) Each transfection condition (per well) contained a total of 300 ng of plasmids in 1:1:1 ratio of the GCaMP6, Orco, and the corresponding OR plasmid that was diluted in 4.8 uL of OptiMEM (Gibco) along with 0.1 uL of P3000. The mixture was incubated for 5 minutes and then further incubated for 20 minutes after being mixed with Lipofectamine 3000 (Invitrogen) diluted in OptiMEM. This mixture was scaled accordingly to batch transfect 50-100 wells per construct per plate.
(§10) HEK293T cells were maintained at 37°C with 5% carbon dioxide and grown in high glucose DMEM enhanced with 10% FBS and 1% GlutaMAX (Gibco). Cells were detached with TrypLE Express Enzyme and resuspended in FluoroBrite DMEM (Gibco) with 10% FBS and 1% GlutaMAX (Gibco) to a concentration of 5 × 10^5 cells/ml. Cells were combined with each transfection condition and added to 2x16 wells of a 384-well plate (Grenier CELLSTAR). Cells were kept at 37°C for 18-20 hours before being used for fluorescence plate reading.
(§11) Odorant plates were prepared using D300e (Hewlett Packard), a digital, non-contact dispenser. Briefly, stock solutions of bombykol and bombykal were prepared in DMSO and plated onto 384-plates (Greiner, Catalog #784201) in a titrating volume to obtain a concentration series ranging between 316 nM and 100 mM with a final volume of 0.2 µL.
(§12) The odorant plates were kept at −20 °C until usage.
as §3
as §4, with “DMSO. For the cell plate, the FluoroBrite DMEM (Gibco) was exchanged out with the” for “DMSO.”
as §5

[5] = molecular target: BmOR1/Orco (Bombyx mori, UniProt Q5WA61); assay: GCaMP6 calcium flux assay, wild-type BmOR1/Orco; format: cell-based
BmOR1/Orco, sequence (Q7YT34 entry or part of it): as the sequence (Q7YT34 entry or part of it, stated change not applied, further chain) above
BmOR1/Orco, sequence (Q5WA61 entry or part of it): as the sequence (Q5WA61 entry or part of it N93T) above, with T93N counted along it
Excerpt: as §6, §7, §8, §9, §10, §11, §12, §3
as §4, with “DMSO. For the cell plate, the FluoroBrite DMEM (Gibco) was exchanged out with the” for “DMSO.”
as §5

[6] = molecular target: OR1_L340A (Bombyx mori, UniProt Q5WA61, L340A); assay: GCaMP6 calcium flux assay, BmOR1/Orco mutant L340A; format: cell-based
OR1_L340A, sequence (Q5WA61 entry or part of it L340A): as the sequence (Q5WA61 entry or part of it N93T) above, with T93N, L340A counted along it
OR1_L340A, sequence (Q7YT34 entry or part of it, stated change not applied, further chain): as the sequence (Q7YT34 entry or part of it, stated change not applied, further chain) above
Excerpt: as §1, §2, §3, §4, §5

[7] = molecular target: OR1_S60A (Bombyx mori, UniProt Q5WA61, S60A); assay: GCaMP6 calcium flux assay, BmOR1/Orco mutant S60A; format: cell-based
OR1_S60A, sequence (Q7YT34 entry or part of it, stated change not applied): as the sequence (Q7YT34 entry or part of it, stated change not applied, further chain) above
OR1_S60A, sequence (Q5WA61 entry or part of it S60A): as the sequence (Q5WA61 entry or part of it N93T) above, with S60A, T93N counted along it
Excerpt: as §1, §2, §3, §4, §5

[8] = molecular target: OR1_N93A (Bombyx mori, UniProt Q5WA61, N93A); assay: GCaMP6 calcium flux assay, BmOR1/Orco mutant N93A; format: cell-based
OR1_N93A, sequence (Q5WA61 entry or part of it N93A): as the sequence (Q5WA61 entry or part of it N93T) above, with T93A counted along it
OR1_N93A, sequence (Q7YT34 entry or part of it, stated change not applied, further chain): as the sequence (Q7YT34 entry or part of it, stated change not applied, further chain) above
Excerpt: as §1, §2, §3, §4, §5

[9] = molecular target: OR1_L342A (Bombyx mori, UniProt Q5WA61, L342A); assay: GCaMP6 calcium flux assay, BmOR1/Orco mutant L342A; format: cell-based
OR1_L342A, sequence (Q7YT34 entry or part of it, stated change not applied): as the sequence (Q7YT34 entry or part of it, stated change not applied, further chain) above
OR1_L342A, sequence (Q5WA61 entry or part of it L342A): as the sequence (Q5WA61 entry or part of it N93T) above, with T93N, L342A counted along it
Excerpt: as §1, §2, §3, §4, §5

[10] = molecular target: OR3_K58Q (Bombyx mori, UniProt Q5FBE0, K58Q); assay: GCaMP6 calcium flux assay, BmOR3/Orco mutant K58Q; format: cell-based
OR3_K58Q, sequence (Q5FBE0 entry or part of it K58Q): as the sequence (Q5FBE0 entry or part of it T91N) above, with K58Q, N91T counted along it
OR3_K58Q, sequence (Q7YT34 entry or part of it, stated change not applied, further chain): as the sequence (Q7YT34 entry or part of it, stated change not applied, further chain) above
Excerpt: as §6, §7, §8, §9, §10, §11, §12, §3
as §4, with “DMSO. For the cell plate, the FluoroBrite DMEM (Gibco) was exchanged out with the” for “DMSO.”
as §5

[11] = test system: B. mori male moths; parameters: method as in PMID 24744736, PMID 22836825; settings: conspecific male moths; cited from earlier work
[12] = molecular target: OR3_K58A (Bombyx mori, UniProt Q5FBE0, K58A); assay: GCaMP6 calcium flux assay, BmOR3/Orco mutant K58A; format: cell-based
OR3_K58A, sequence (Q5FBE0 entry or part of it K58A): as the sequence (Q5FBE0 entry or part of it T91N) above, with K58A, N91T counted along it
OR3_K58A, sequence (Q7YT34 entry or part of it, stated change not applied, further chain): as the sequence (Q7YT34 entry or part of it, stated change not applied, further chain) above
Excerpt: as §6, §7, §8, §9, §10, §11, §12, §3
as §4, with “DMSO. For the cell plate, the FluoroBrite DMEM (Gibco) was exchanged out with the” for “DMSO.”
as §5

[13] = molecular target: OR3_T91A (Bombyx mori, UniProt Q5FBE0, T91A); assay: GCaMP6 calcium flux assay, BmOR3/Orco mutant T91A; format: cell-based
OR3_T91A, sequence (Q7YT34 entry or part of it, stated change not applied): as the sequence (Q7YT34 entry or part of it, stated change not applied, further chain) above
OR3_T91A, sequence (Q5FBE0 entry or part of it T91A): as the sequence (Q5FBE0 entry or part of it T91N) above, with N91A counted along it
Excerpt: as §1, §2, §3, §4, §5

[14] = test system: OR1_F161A; assay: GCaMP6 calcium flux assay, BmOR1/Orco mutant F161A; format: cell-based, Bombyx mori
Excerpt: as §1, with “We used a previously established calcium flux functional assay where we co-transfected HEK293 cells with either BmOR1 or BmOR3, along with the coreceptor, BmOrco (here on referred to as Orco), and the fluorescent calcium reporter, GCaMP6 (Figure 1C).” left out
as §2, §5

[15] = test system: OR1_I343A; assay: GCaMP6 calcium flux assay, BmOR1/Orco mutant I343A; format: cell-based, Bombyx mori
Excerpt: as §1, with “We used a previously established calcium flux functional assay where we co-transfected HEK293 cells with either BmOR1 or BmOR3, along with the coreceptor, BmOrco (here on referred to as Orco), and the fluorescent calcium reporter, GCaMP6 (Figure 1C).” left out
as §2, §5

[16] = molecular target: BmOR3/Orco (Bombyx mori, UniProt Q5FBE0); assay: GCaMP6 calcium flux assay, wild-type BmOR3/Orco; format: cell-based
BmOR3/Orco, sequence (Q5FBE0 entry or part of it): as the sequence (Q5FBE0 entry or part of it T91N) above, with N91T counted along it
BmOR3/Orco, sequence (Q7YT34 entry or part of it, further chain): as the sequence (Q7YT34 entry or part of it, stated change not applied, further chain) above
Excerpt: as §6, §7, §8, §9, §10, §11, §12, §3
as §4, with “DMSO. For the cell plate, the FluoroBrite DMEM (Gibco) was exchanged out with the” for “DMSO.”
as §5

OR1_M344A, sequence (Q5WA61 entry or part of it M344A): as the sequence (Q5WA61 entry or part of it N93T) above, with T93N, M344A counted along it
OR1_M344A, sequence (Q7YT34 entry or part of it, stated change not applied, further chain): as the sequence (Q7YT34 entry or part of it, stated change not applied, further chain) above

CCC/C=C\C=C\CCCCCCCCCO [Bombykol, bombykol]
pEC50 [1]: 6.00 | Hill Coefficient (n± SE) ([1]; OR1_M344A): 1.5 ± 0.3 | Max (ΔF/F ± SE) ([1]; OR1_M344A): 0.84 ± 0.03 ΔF/F | pEC50 [2]: 6.00 | Hill Coefficient (n± SE) ([2]; OR3_T91N): 1.7 ± 0.2 | Max (ΔF/F ± SE) ([2]; OR3_T91N): 0.64 ± 0.07 ΔF/F | pEC50 [3]: 6.00 | Hill Coefficient (n± SE) ([3]; OR1_N93T): 2.0 ± 0.3 | Max (ΔF/F ± SE) ([3]; OR1_N93T): 1.02 ± 0.08 ΔF/F | pEC50 [4]: 5.50 | Hill Coefficient (n± SE) ([4]; OR3_K58S): 1.2 ± 0.3 | Max (ΔF/F ± SE) ([4]; OR3_K58S): 0.42 ± 0.07 ΔF/F | pEC50 ([5]; EC50, HEK293 cells co-transfected with BmOR1, BmOrco, GCaMP6): 6.57 | pEC50 ([5]; Mean (-log EC50 ± SE), wild-type BmOR1/Orco): 6.57 | Hill Coefficient (n± SE) ([5]; wild-type BmOR1/Orco): 1.6 ± 0.1 | Max (ΔF/F ± SE) ([5]; wild-type BmOR1/Orco, ΔF/F at highest ligand concentration): 0.98 ± 0.07 ΔF/F | pEC50 [6]: 5.70 | Hill Coefficient (n± SE) ([6]; OR1_L340A): 2.0 ± 0.3 | Max (ΔF/F ± SE) ([6]; OR1_L340A): 0.48 ± 0.08 ΔF/F | pEC50 [7]: 6.30 | Hill Coefficient (n± SE) ([7]; OR1_S60A): 2.1 ± 0.3 | Max (ΔF/F ± SE) ([7]; OR1_S60A): 1.1 ± 0.1 ΔF/F | pEC50 [8]: 5.30 | Hill Coefficient (n± SE) ([8]; OR1_N93A): 1.0 ± 0.3 | Max (ΔF/F ± SE) ([8]; OR1_N93A): 0.63 ± 0.04 ΔF/F | pEC50 [9]: 6.10 | Hill Coefficient (n± SE) ([9]; OR1_L342A): 1.4 ± 0.2 | Max (ΔF/F ± SE) ([9]; OR1_L342A): 0.87 ± 0.08 ΔF/F | pEC50 [10]: 6.10 | Hill Coefficient (n± SE) ([10]; OR3_K58Q): 5 ± 3 | Max (ΔF/F ± SE) ([10]; OR3_K58Q): 0.66± 0.06 ΔF/F | behavioral response [11]: aggressive attraction behavior | pEC50 [12]: 6.60 | Hill Coefficient (n± SE) ([12]; OR3_K58A): 15 ± 6 | Max (ΔF/F ± SE) ([12]; OR3_K58A): 0.15 ± 0.06 ΔF/F | pEC50 [13]: 5.40 | Hill Coefficient (n± SE) ([13]; OR3_T91A): 0.9 ± 0.3 | Max (ΔF/F ± SE) ([13]; OR3_T91A): 0.31 ± 0.05 ΔF/F | Max (ΔF/F ± SE) [14]: 0.04 ± 0.02 ΔF/F | Max (ΔF/F ± SE) [15]: 0.14 ± 0.01 ΔF/F | pEC50 ([16]; EC50, HEK293 cells co-transfected with BmOR3, BmOrco, GCaMP6): 5.89 | pEC50 ([16]; Mean (-log EC50 ± SE), wild-type BmOR3/Orco): 5.89 | response to non-cognate pheromone, fold smaller than cognate pheromone ([16]; bombykol vs cognate bombykal at BmOR3/Orco): ~ 10 fold | Hill Coefficient (n± SE) ([16]; wild-type BmOR3/Orco): 1.0 ± 0.1 | Max (ΔF/F ± SE) ([16]; wild-type BmOR3/Orco, ΔF/F at highest ligand concentration): 0.61 ± 0.04 ΔF/F
